One data set has as its system all applied pathogens. Nature of the data set: Agar-well diffusion of synthesized compounds, whole panel. It counts as cell-based. From the text:
(§1) The antimicrobial activity of the prepared compounds was estimated through an agar-well diffusion method as adapted from the modified Kirby–Bauer protocol.[24] In this test, microbial pathogens were applied, including Staphylococcus aureus ATCC 25923 (S. aureus), Streptococcus mutans ATCC 25175 (S. mutans), Bacillus cereus ATCC 19637 (B. cereus), Bacillus aureus ATCC 25923 (B. aureus), Bacillus epidermidis ATCC 14990 (B. epidermidis), and Bacillus subtilis ATCC 11774 (B. subtilis) as Gram-positive bacteria, and Pseudomonas aeruginosa ATCC 27853 (P. aeruginosa), Klebsiella pneumonia ATCC 13883 (K. pneumonia), and Salmonella typhimurium ATCC 14028 (S. typhimurium), Salmonella pneumoniae ATCC 10031(S. pneumoniae), Escherichia coli ATCC 10536 (E. coli), and Salmonella paratyphi ATCC 9150 (S. paratyphi) as Gram-negative bacteria. Additionally, Candida albicans (ATCC 10231), Candida krusei ATCC 6258 (C. krusei), Candida glabrata ATCC 66032 (C. glabrata), andCandida parapsilosis ATCC 22019 (C. parapsilosis) were applied as models of unicellular fungi. The pre-inoculation cultures of the pathogens were prepared on Muller–Hinton broth and cultivated for 24 h at 37 °C. The agar-well test was prepared on Muller–Hinton agar with 100 μL of each pathogen pre-culture (0.5 McFarland conc.) and uniformly distributed on the plate surface. Under aseptic conditions, six wells were created on the agar surface using a sterile corkborer (9 mm). To each well, 100 μL of the prepared compound (10 mg mL^−1) was separately inserted into each plate. All plates were incubated for 24 h at 37 °C; the established inhibition zones (Halo-zones) surrounding the wells indicated positive antimicrobial activity and were stated as the radius of the inhibition zone (mm).
(Agar diffusion results depend on both activity and mobility in agar.)

The next data set relates to K. pneumonia. Nature of the data set: Agar-well diffusion of synthesized compounds. It counts as cell-based, Klebsiella pneumonia ATCC 13883. Conditions: Klebsiella pneumoniae, 100 μL of 10 mg mL^−1 per well, 24 h, 37 °C.
Source text: as §1, with “Under aseptic conditions, six wells were created on the agar surface using a sterile corkborer (9 mm). To each well, 100 μL of the prepared compound (10 mg mL^−1) was separately inserted into each plate. All plates were incubated for 24 h at 37 °C; the established inhibition zones (Halo-zones) surrounding the wells indicated positive antimicrobial activity and were stated as the radius of the inhibition zone (mm).” left out

The subject of another data set is MDA cells. Nature of the data set: MTT anticancer assay. In kind it is cell-based, human. To be noted: Homo sapiens, Breast carcinoma cell, 48 h. The text has this:
(§2) MTT assay: the normal cell line (Wi-38), colon cancer (Caco-2), lung cancer (A549), and breast cancer (MDA) cell lines were sourced from ATCC, USA. All different cell lines were cultivated and preserved in DMEM medium (SERANA, Germany), accompanied by 10% FBS (Gibco, USA) and 1% Pen/Strep solution (Lonza, USA). The newly prepared derivatives at various doses were considered for their anticancer activity and their safety on normal cells, applying MTT (3-[4, 5-dimethylthiazol]-2, 5-diphenyltetrazolium bromide) methods.[22] At first, all normal and cancer cell lines (1.0 ×10^4) were inoculated in 4 antiseptic 96-well tissue culture microplates and incubated for 24 h in a CO2 incubator. After cell attachments, the prepared derivatives were added to both normal Wi-38 cells at diverse concentrations of (6.25–200 μg mL^−1, 2-fold) and cancer cells at different concentrations of (3.125–100 μg mL^−1, 2-fold) in triplicate and incubated for another 48 h at 37 °C in a CO2 incubator with an adjusted concentration of 5%. After that, the treated cells were cleaned three times with PBS to remove debris and dead cells. Next, 200 μL of 0.5 mg mL^−1 MTT dye solution in PBS was mixed in each well, and the cells were further kept for 3 h at 37 °C in a 5% CO2 incubator. After that, MTT was removed and 200 μL of DMSO was added to each well. The optical density (OD) was recorded at 570 nm via a microplate reader (B.M.G. LabTech, Germany). Basic cells (untreated) were utilized as negative control cells, and 5-fluorouracil (5-FU) was included as a standard chemotherapy drug. The qualified cell viability (%) was evaluated as in equation (eqn (1)):1 Relative cell viability (%) = […] A1 is the OD of the examined derivative, A0 is the OD of the standard, and AU is the OD of the untreated cells.
(§3) Anticancer activity assay: the anticancer effect of each derivative was assessed by evaluating the half-maximal inhibitory concentration (IC50) value via the GraphPad Prism 7.0 software. However, SI (selective index) values of each derivative were estimated by splitting the IC50 value of healthy cells by the IC50 value of malignant cells, as previously reported.[23] The effects of the created derivatives on the morphology of MDA cells were evaluated at IC50 doses and captured by phase-contrast microscopy (Olympus, Germany) in comparison to untreated control cells.
For orientation: Formazan colour is commonly taken as a measure of viable cells.

A further data set has as its system A549 cells. Kind of data set: MTT anticancer assay. It counts as cell-based, human. Conditions: Homo sapiens, A549, lung carcinoma cells, 48 h.
Source text: as §2, §3

Another data set deals with P. aeruginosa. Kind of data set: Agar-well diffusion of synthesized compounds. In kind it is cell-based, Pseudomonas aeruginosa ATCC 27853. Conditions: Pseudomonas aeruginosa, 100 μL of 10 mg mL^−1 per well, 24 h, 37 °C.
Source text: as §1, with “Under aseptic conditions, six wells were created on the agar surface using a sterile corkborer (9 mm). To each well, 100 μL of the prepared compound (10 mg mL^−1) was separately inserted into each plate. All plates were incubated for 24 h at 37 °C; the established inhibition zones (Halo-zones) surrounding the wells indicated positive antimicrobial activity and were stated as the radius of the inhibition zone (mm).” left out

The next data set has as its system Caco-2 cells. Kind of data set: MTT anticancer assay. In kind it is cell-based.
Source text: as §2, §3

The next data set deals with S. mutans. Nature of the data set: Agar-well diffusion of synthesized compounds. In kind it is cell-based, Streptococcus mutans ATCC 25175. Conditions: Streptococcus mutans, 100 μL of 10 mg mL^−1 per well, 24 h, 37 °C.
Source text: as §1

The subject of a further data set is Wi-38 cells. Nature of the data set: MTT cytotoxicity assay, normal cells. To be noted: WI-38, normal human lung fibroblast cells, 48 h. In kind it is cell-based.
Source text: as §2, §3

The values below come from paper PMC12495412, “Coumarin/nitrogen-bearing heterocyclic hybrid-loaded electrospun PMMA/PVP nanofibrous scaffolds for accelerating topical wound healing rates: synthesis and in vitro bio-evaluation” (RSC Advances, 2025).

Molecules are shown by their SMILES. Converted amounts (≈) assume the structure as drawn.

The zone of inhibition is the size of the clear area around the sample on an inoculated plate. A higher zone of inhibition goes with wide suppression of growth. A word on the IC50: it is the concentration at which inhibition is half-maximal. Low readings indicate inhibition by little substance, high ones a need for much substance.

With `O=C(Nc1ccc(Nc2ccnc3cc(Cl)ccc23)cc1)c1cc2ccccc2oc1=O` [Compound A, N-(4-((7-chloroquinolin-4-yl)amino)phenyl)-2-oxo-2H-chromene-3-carboxamide], the “Antimicrobial activity” value in the data set with all applied pathogens is “wide-spectrum antibacterial activity”. The zone of inhibition at 10 mg/mL in the data set on K. pneumonia, in the data set on P. aeruginosa and with S. mutans was about 14 mm in each case. In addition, the IC50 in the data set with MDA cells was 5.46 ± 0.27 µg/mL (≈ 12.4 µM); in the data set with A549 cells, 11.5 ± 1.75 µg/mL (≈ 26 µM); with Caco-2 cells (Homo sapiens, Caco-2, colon carcinoma cells, MTT, 48 h) it was 9.03 ± 1.53 µg/mL (≈ 20.4 µM); in the data set on Wi-38 cells it was 139 ± 12 µg/mL (≈ 314 µM). The “SI Caco-2” value with Caco-2 cells (IC50 Wi-38 / IC50 Caco-2) is reported as 15.38 ± 1.33.
